Here are results for 2 compounds from US12162855B2, “Tetrahydroquinolino derivatives for the treatment of metastatic and chemoresistant cancers” (THE TRUSTEES OF PRINCETON UNIVERSITY, priority 2018, dated 2024).

Where “and” joins values, the source holds several entries; their conditions need not be identical. Identical values can stand only once. Marks after values point to notes of the source that are not given here. A value given as a limit tells only on which side of the number the result lay.

The target in data set [1] is T1, ALDH1a3 (Homo sapiens, UniProt P47895).
T1 construct: endogenous in cells; host or cells: panel of cancer cell lines (e.g. Sum159-M1a, MDA-MB-468 and others of b212)
T1 sequence (P47895 2-512): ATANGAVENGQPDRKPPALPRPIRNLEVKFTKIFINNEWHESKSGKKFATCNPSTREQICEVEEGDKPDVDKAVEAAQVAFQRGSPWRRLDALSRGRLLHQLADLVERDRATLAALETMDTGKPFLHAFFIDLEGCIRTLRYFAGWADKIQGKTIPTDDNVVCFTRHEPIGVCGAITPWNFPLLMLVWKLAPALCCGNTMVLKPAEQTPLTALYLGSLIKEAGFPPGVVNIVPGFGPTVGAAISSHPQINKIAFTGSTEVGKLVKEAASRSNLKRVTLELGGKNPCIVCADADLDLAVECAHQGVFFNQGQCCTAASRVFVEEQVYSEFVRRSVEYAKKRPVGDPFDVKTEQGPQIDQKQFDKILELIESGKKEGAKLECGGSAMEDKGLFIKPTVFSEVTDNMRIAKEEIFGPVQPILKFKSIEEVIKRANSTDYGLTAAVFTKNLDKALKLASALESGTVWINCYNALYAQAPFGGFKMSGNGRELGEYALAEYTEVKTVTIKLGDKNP
In words: ALDEFLUOR assay in cell lines of a variety of cancer types. It counts as cell-based. To be noted: ALDEFLUOR-positive cells, various cancer cell lines. The text has this:
Cell lines were labeled with retroviral vectors with bi-cistronic expression of GFP/firefly luciferase to facilitate imaging and flow cytometry experiments. All cell lines were verified negative for mycoplasma contamination by monthly PCR analysis. No cells lines used here appear in the database of commonly misidentified cell lines (ICLAC). All cell lines were validated with STR analysis and compared to NCBI repository data.
Cells were counted, centrifuged and resuspended at 1,000,000 cells/mL in ALDEFLUOR™ buffer (Stemcell Technologies). ALDEFLUOR™ substrate (Stemcell Technologies, 1:200) and test compound or 1 mM DEAB were added to cell suspension and incubated at 37° C. for 45 minutes with vortexing every 15 minutes. Cells were centrifuged and resuspended in ALDEFLUOR™ buffer with DAPI at 5 μg/mL. Samples were analyzed with the BD LSR2 flow cytometry platform. Gating was performed using DEAB as a negative control.
A notable exception is liver cancer, where it is expected that a large ALDEFLUOR™-positive population exists, and is driven by ALDH1a1.

Data set [2] relates to SUM159-M1a cells. In words: Lung metastasis xenograft, SUM159-M1a cells by tail vein injection, BLI. It counts as in vivo, mouse. To be noted: MBE1 IP in conjunction with paclitaxel, tail vein injection model. On the procedure: All xenograft experiments were conducted on 8-week old female mice (athymic Nu/Nu, or NOD/SCID Gamma). Xenograft experiments were conducted using 125,000 SUM159-M1a cells in 100 μL PBS for tail vein or intracardiac injection. Mice were randomized following injection. Bioluminescent imaging (BLI) was conducted using the IVIS 200 system and retroorbital luciferin injection. For drug treatment, MBE1 (prepared as above) was given to mice via IP injection in conjunction with paclitaxel (5 mg/mL in 10% ethanol, 10% Kolliphor EL, 80% PBS) at the time intervals and dosages indicated in FIG. 5A (tail vein injection) and FIG. 6A (intracardiac injection).
FIG. 5B is a line graph of lung metastasis, as measured using bioluminescence imaging (BLI), versus time (days), and compares lung metastasis in the presence and absence of MBE1 in the mice from the experiment outlined in FIG. 5A. FIG. 6B is a line graph of bone metastasis, as measured using BLI, versus time (days), and compares bone metastasis in the presence and absence of MBE1 in the mice from the experiment outlined in FIG. 6A.

The nature of data set [3]: Plasma pharmacokinetics in mice by LC/MS/MS. It counts as in vivo, mouse. The note with it: for half-life / AUC(0-inf) / Clearance: mice, dose 25 mg/kg; for AUC(0-inf): noncompartment model. On the procedure: Pharmacokinetic experiments were performed on 16-week old C57BL6 male mice. Mice were administered MBE1.5 (15% DMSO, 5% Kolliphor EL, 80% PBS) via IP injection. Blood was collected by terminal cardiac puncture at 15 minutes, 30 minutes, 1 hour, 3 hours, and 24 hours post-injection. Serum was obtained by blood separation via centrifugation at 16200 RCF for 1 min. Tissues were then collected following exsanguination. Serum and tissues were rapidly frozen in liquid nitrogen and submitted for pharmacokinetic evaluation.
Plasma MBE1.5 concentration was measured with LC/MS/MS assay in mice PK studies.
Chemicals: MBE1.5 and MBE2.0 were supplied as stocks (1 mg/mL) in MeOH with 1% DMSO. MBE2.0 was used as internal standard. HPLC grade acetonitrile and water were purchased from J.T. Baker (Center Valley, PA). The mouse plasma was purchased from Innovative Research (Novi, MI) for the preparation of plasma calibration standards.
Preparation of standard solution: MBE1.5 stock was diluted in control mice plasma to obtain calibration range from 8.2 ng/mL to 18 μg/mL. 1 μg/mL MBE2.0 in methanol was used as a working internal standard (IS).
Sample preparation: The plasma standard and mouse plasma samples (204) were spiked with 54 μL IS and deproteinized with 1204 acetonitrile and methanol (v/v 5:1). After centrifugation at 13000 rpm for 15 minutes, 254 of the supernatant was analyzed by LC-MS.
Liquid Chromatographic/Mass spectrometry: Quantitation of MBE1.5 was performed using TSQ Quantum triple quadruple mass spectrometer equipped with an API electrospray ionization (ESI) source, a Surveyor MS pump, a Surveyor Autosampler, with Xcalibur data acquisition software (ThermoElectron, San Jose, CA, USA).
LC conditions were as follows: mobile phase A: aqueous solution (0.1% formic acid); mobile phase B: acetonitrile (0.1% formic acid); flow rate 500 μL/min; gradient elution, 0 to 1 minute, 60% A; 1 to 2.5 minutes, 60% to 20% A; 2.5 to 7.0 minutes, 0% A, 7.0 to 9.0 minutes 0% A, 9.0 to 11.0 minutes, 0% to 60% A; and column: Luna® C18, 150×4.6 mm, 5 μm (Phenomenex, Torrance, CA). The retention times for MBE1.5 and IS were 6.3 minutes and 6.6 minutes, respectively.
MS/MS conditions were as follows: in single reaction monitoring mode, m/z 313.2/178.2 (MBE1.5), m/z 281.2/119.1 (MBE2.0, IS); ion spray voltage, 4500 v; capillary temperature 350° C.; sheath gas pressure 20 arbitrary units; Aux gas pressure 50 arbitrary units; collision pressure 1.5 arbitrary units. The collision energy and tube lens were optimized for each compound.
Calculation: Plasma calibration standards were used for the quantitation of MBE in plasma samples. The log linear regression was used for calibration curve to determine the concentration in plasma samples.
Preliminary PK data was analyzed using noncompartment model by Winnolin 2.0.

[4] abbreviates: male, C57BL6, mouse, plasma, ip, 25 mg/kg, i.p., calculation: time point to 3 hr.
Setting [5] is: male, C57BL6, mouse, plasma, ip, 25 mg/kg, i.p., calculation: time point to 24 hr.

As to `CCc1cnccc1C(=O)Nc1cc2c(cc1F)NC(=O)CC2` [MBE1, 3-ethyl-N-(7-fluoro-2-oxo-1,2,3,4-tetrahydroquinolin-6-yl)isonicotinamide], the “inhibition of ALDH1a3 activity in a variety of cancer types (FIG. 3A)” value in data set [1] is listed as “inhibited by MBE1 in many cancer types”. The “lung metastasis by BLI (FIG. 5B)” value in data set [2] is “effective therapeutic to treat established metastatic disease”.
As to `CCc1ccccc1C(=O)Nc1cc2c(cc1F)NC(=O)CC2` [MBE1.5, 2-ethyl-N-(7-fluoro-2-oxo-1,2,3,4-tetrahydroquinolin-6-yl)benzamide], the “Concentration in mouse plasma, individual mice” value in data set [3] (Time 0 hr, mice #1-#3, LOD 8.2 ng/mL) was “<LOD”; in data set [3] (Time 0.5 hr, i.p., mice #1-#3) it was 6.932 µg/mL and 3.411 µg/mL and 4.650 µg/mL; in data set [3] (Time 1 hr, i.p., mice #1-#3), 2.842 µg/mL and 6.295 µg/mL and 2.815 µg/mL; in data set [3] (Time 3 hr, i.p., mice #1-#3), 1.704 µg/mL and 3.447 µg/mL and 0.849 µg/mL; in data set [3] (Time 24 hr, i.p., mice #1-#3, LOD 8.2 ng/mL), “<LOD”. In addition, the “Concentration in mouse plasma, individual mice, forced to calculate” value in data set [3] (Time 24 hr, i.p., mice #1-#3, integrated peak area less than LOD) was 0.002* μg/ml and 0.006* μg/ml and 0.005* μg/ml. The “Concentration in mouse plasma, Mean” value in data set [3] (Time 24 hr, i.p., LOD 8.2 ng/mL) is “<LOD”. Also, the concentration at 0.5 h in data set [3] (male, C57BL6, mouse, plasma, ip, 25 mg/kg, Time 0.5 hr) came out at 5000 ng/mL. Moreover, in data set [3] (male, C57BL6, mouse, plasma, ip, 25 mg/kg, Time 1 hr), the concentration at 1 h was 3980 ng/mL. In data set [3] (male, C57BL6, mouse, plasma, ip, 25 mg/kg, Time 3 hr), the concentration at 3 h worked out at 2000 ng/mL. Also, the concentration at 24 h in data set [3] (male, C57BL6, mouse, plasma, ip, 25 mg/kg, Time 24 hr, i.p., integrated peak area less than LOD, read-out: Concentration in mouse plasma, Mean, forced to calculate) is 4 ng/mL. Besides, the half-life (usually the time needed for the level to fall by half in the phase considered) in data set [3] (setting [4]) was 114 min; in data set [3] (setting [5]), 139 min. Moreover, the AUC(0-inf) (in general, total exposure, with the tail of the curve extrapolated) in data set [3] (setting [4]) is 15700 ng·h/mL; in data set [3] (setting [5]), 16900 ng·h/mL. The Clearance was 39.87 mL/h in data set [3] (i.p., calculation: time point to 3 hr) and 36.96 mL/h in data set [3] (i.p., calculation: time point to 24 hr).
